Assay results taken from patent publication US12122774B2, “Compounds as MYT1 inhibitors” (WIGEN BIOMEDICINE TECHNOLOGY (SHANGHAI) CO., LTD., priority 2022, dated 2024).
Values after ≈ are worked out from the molar mass of the structure shown.

Experiments:
[1] = tested on: MIA PaCa-2 cells; assay: In vitro anti-proliferative activity against MIA PaCa-2 cells (compound alone); format: cell-based; conditions: intracellular ATP content
Description: (§1) MIA PaCa-2 cells were seeded on a 384-well plate at 3000 cells/well. After overnight adherence culture, DMSO or the compounds serially diluted 1:5 from 10 µM were added. The viability was assessed 72 h after dosing by measuring the intracellular ATP content. The inhibition percentage of viable cells by the compounds was calculated by comparing with the DMSO group, and the IC50 value was calculated.

[2] = in vitro; conditions: dog, MDCK
Description: (§2) In vitro passive permeability or the ability to serve as a P-glycoprotein (P-gp) transport substrate was tested using MDCK cells (MDCK wild type) or MDCK cells stably transduced with MDR1 (MDCK-MDR1), respectively. The permeability experiment was performed in duplicate in a transwell system at a single concentration (5 μM). The cells were incubated for 90 min. Apical-to-basolateral (A to B, A-B) transport and basolateral-to-apical (B to A, B-A) transport of the corresponding compound were determined, and the permeation rate (apparent permeability) (Papp×10^−6 cm/sec) and efflux ratio (Papp (B-A)/Papp (A-B)) of the test compound were calculated.

[3] = tested on: MDCK cells stably transduced with MDR1 (MDCK-MDR1); assay: in vitro; conditions: MDCK-MDR1
Description: as §2

[4] = tested on: P-glycoprotein (P-gp, MDR1); assay: in vitro; conditions: dog
Description: as §2

[5] = In vitro stability experiment (HPLC purity of filtrate); format: physicochemical
Description: (§3) Preparation of a standard curve: 10.01 mg of sample was weighed out and placed in a volumetric flask, and the volume was brought to 10 mL with acetonitrile/water (v/v, 9/1) to prepare 1.001 mg/mL of standard solution; the standard solution was then serially diluted to 0.5005 mg/mL, 0.1001 mg/mL, 0.05005 mg/mL, 0.01001 mg/mL, and 0.001001 mg/mL to generate the standard curve, and a linear equation was fitted by taking the peak area of the sample as a vertical axis and the concentration as a horizontal axis. Solubility and stability test: 15 mg of sample was added to 3 mL of vehicle (FaSSIF, FeSSIF, SGF, or water) to prepare a corresponding suspension at a target concentration of 5 mg/mL. The prepared suspension was stirred on a shaker (800 rpm) at 37° C. for 0.5 h, and the suspension was then filtered. The filtrate was diluted with a diluent to a corresponding multiple so that the peak height could not exceed the standard curve, and the solubility and purity were detected using HPLC.

[6] = In vitro solubility experiment; format: physicochemical; conditions: for solubility at 0.5 h: thermodynamic from solid
Description: as §3

[7] = In vivo pharmacokinetic experiment; parameters: species or system CD-1 female mice; conditions: mice
Description: CD-1 female mice aged 7 to 10 weeks were intravenously administered and orally administered at a dose of 2 mg/kg and 10 mg/kg, respectively. The mice were fasted for at least 12 h before the administration and given food 4 h after the administration, and they were given ad libitum access to water during the experiment. On the day of the experiment, animals in the intravenous group were administered the corresponding compound by single injection via the tail vein at an administration volume of 10 mL/kg. Animals in the oral group were administered the corresponding compound by single intragastric injection at an administration volume of 10 mL/kg. The animals were weighed before administration, and the administration volume was calculated according to the body weight. The sample collection time was 0.083 h (injection group), 0.167 h, 0.5 h, 1 h, 2 h, 4 h, 8 h, and 24 h. About 200 μL of whole blood was collected through the submaxillary venous plexus at each time point and used to prepare plasma for concentration determination by high-performance liquid chromatography-tandem mass spectrometry (LC-MS/MS). All animals were euthanized with CO2 anesthesia after the PK samples were collected at the last time point. The plasma concentrations were processed using a non-compartmental model of Phoenix WinNonlin™ version 8.3 (Certara) pharmacokinetic software, and the pharmacokinetic parameters were calculated using a linear-log trapezoidal method.

[8] = In vitro solubility experiment; format: physicochemical; conditions: organic solvent or mixture, thermodynamic from solid
[9] = tested on: MIA PaCa-2 cells; assay: In vitro anti-proliferative activity in combination with gemcitabine against MIA PaCa-2 cells; format: cell-based; conditions: for IC50: read-out: Anti-proliferative activity against MIA PaCa-2 cells (20 nM gemcitabine) IC50, with 20 nM gemcitabine, 72 h, intracellular ATP content
Description: as §1, with “cells/well, and 20 nM gemcitabine was added.” for “cells/well.”, “1000 nM” for “10 µM”

[10] = target: T1, Recombinant MYT1 protein (Homo sapiens, UniProt Q99640); assay: In vitro assay for inhibiting MYT1 kinase activity (ADP-GLO); format: biochemical; conditions: 10 μM ATP, read-out: Inhibitory activity against recombinant protein MYT1 IC50
T1 sequence (Q99640 1-499): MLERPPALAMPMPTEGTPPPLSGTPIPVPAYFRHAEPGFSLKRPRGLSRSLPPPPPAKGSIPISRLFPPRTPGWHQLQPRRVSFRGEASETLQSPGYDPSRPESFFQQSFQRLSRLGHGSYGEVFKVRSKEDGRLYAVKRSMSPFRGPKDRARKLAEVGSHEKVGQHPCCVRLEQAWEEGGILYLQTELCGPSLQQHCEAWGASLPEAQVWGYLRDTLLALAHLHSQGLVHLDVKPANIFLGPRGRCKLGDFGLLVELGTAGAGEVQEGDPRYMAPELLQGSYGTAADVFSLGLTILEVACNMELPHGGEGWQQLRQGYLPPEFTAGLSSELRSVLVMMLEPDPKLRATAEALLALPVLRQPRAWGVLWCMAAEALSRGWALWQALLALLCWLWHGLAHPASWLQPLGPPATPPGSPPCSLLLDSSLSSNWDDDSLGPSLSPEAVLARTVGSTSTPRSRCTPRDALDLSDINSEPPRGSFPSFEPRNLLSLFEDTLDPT
Description: Recombinant MYT1 protein and the compounds were pre-incubated at room temperature for 15 min, and 10 μM ATP was then added to start the reaction. The mixture was incubated at room temperature for another 60 min, and the ADP-GLO reagent from Promega was then added. The resulting mixture was incubated in the dark for 40 min, a detection solution was then added, and the mixture was incubated for another 45-60 min. The chemiluminescence was determined using ENVISION. The inhibition rate and IC50 were calculated compared to the DMSO group.

[11] = FaSSIF, initial pH 6.52, 37° C.
[12] = FeSSIF, initial pH 4.98, 37° C.
[13] = female, CD-1, mouse, plasma, iv, injection 2 mg/kg
[14] = female, CD-1, mouse, plasma, oral administration 10 mg/kg

For `Cc1cc2c(C(N)=O)c(N)n(-c3c(C)c(O)cc4c3CCC4)c2nc1C` (atropisomer, axis not shown) [Compound 117], the IC50 ([1]; 72 h) was > 10 µM.

`Cc1cc2c(C(N)=O)c(N)n(-c3c(C)c(O)cc(F)c3C)c2nc1C` (single isomer, unassigned) [Compound 2] showed an efflux ratio at 90 min, 5 μM [2] of 1.56, a Papp A→B at 90 min, 5 µM ([2]; Papp Mean) of 27.1 ×10⁻⁶ cm/s and a Papp B→A at 90 min, 5 µM ([2]; Papp Mean) of 42.2 ×10⁻⁶ cm/s. For the same compound, the Papp A→B at 90 min, 5 µM ([2]; Papp Sample - 01) was 27.9 ×10⁻⁶ cm/s, the Papp B→A at 90 min, 5 µM ([2]; Papp Sample - 01) was 40 ×10⁻⁶ cm/s and the Papp A→B at 90 min, 5 µM ([2]; Papp Sample - 02) was 26.3 ×10⁻⁶ cm/s. For the same compound, the Papp B→A at 90 min, 5 µM ([2]; Papp Sample - 02) was 44.5 ×10⁻⁶ cm/s, the “Permeability compared to RP-6306” value [3] was “superior permeability to that of RP-6306” and the efflux ratio at 90 min, 5 μM ([4]; MDCK-MDR1) was 1.71. For the same compound, the Papp A→B at 90 min, 5 µM ([4]; MDCK-MDR1, Papp Mean) was 20.5 ×10⁻⁶ cm/s, the Papp B→A at 90 min, 5 µM ([4]; MDCK-MDR1, Papp Mean) was 35 ×10⁻⁶ cm/s and the Papp A→B at 90 min, 5 µM ([4]; MDCK-MDR1, Papp Sample - 01) was 21.1 ×10⁻⁶ cm/s. For the same compound, the Papp B→A at 90 min, 5 µM ([4]; MDCK-MDR1, Papp Sample - 01) was 35.3 ×10⁻⁶ cm/s, the Papp A→B at 90 min, 5 µM ([4]; MDCK-MDR1, Papp Sample - 02) was 19.9 ×10⁻⁶ cm/s and the Papp B→A at 90 min, 5 µM ([4]; MDCK-MDR1, Papp Sample - 02) was 34.8 ×10⁻⁶ cm/s. For the same compound, the “Stability compared to RP-6306” value ([5]; FaSSIF, FeSSIF, and water, in words) was “more stable than RP-6306”, the “HPLC purity 0.5 h” value [5, 11] was 88.76 %, 220 nm and the “HPLC purity 0.5 h” value [5, 12] was 95.98 %, 220 nm. For the same compound, the “HPLC purity 0.5 h” value ([5]; SGF, initial pH 1.2, 37° C.) was 98.69 %, 220 nm, the “HPLC purity 0.5 h” value ([5]; Water, initial pH 7.7, 37° C.) was 96.4 %, 220 nm and the “Solubility compared to RP-6306” value ([6]; FaSSIF, FeSSIF, SGF, water, methanol, and tetrahydrofuran, in words) was “higher solubility in various vehicles”. It also gave a solubility at 0.5 h ([6]; simulated gastric fluid, SGF, initial pH 1.2, 37° C.) of 4860 µg/mL (≈ 14.2 mM), a solubility at 0.5 h [6, 11] of 61 µg/mL (≈ 0.178 mM) and a solubility at 0.5 h [6, 12] of 327 µg/mL (≈ 0.955 mM). It also gave a solubility at 0.5 h ([6]; Water, initial pH 7.7, 37° C.) of 270 µg/mL (≈ 0.789 mM), an AUC(0-t) [7, 13] of 338 ng·h/mL and a half-life [7, 13] of 3.32 h. For the same compound, the Vd ([7]; female, CD-1, mouse, plasma, iv, injection 2 mg/kg, read-out: Vdss) was 6.76 L/kg, the AUC(0-t) [7, 14] was 638 ng·h/mL and the Cmax [7, 14] was 603 ng/mL. The half-life [7, 14] was 3.84 h, the Cl ([7]; injection 2 mg/kg) was 94.4 mL/min/kg and the F % ([7]; oral administration 10 mg/kg) was 44.5%. The “Half-life T1/2 compared to RP-6306” value ([7]; in words) was “longer half-life T1/2 compared to RP-6306”, the “Vdss compared to RP-6306” value ([7]; in words) was “greater increase in Vdss compared to RP-6306” and the IC50 ([1]; Homo sapiens, MIA PaCa-2, 72 h) was 4.32 µM. The solubility at 0.5 h ([8]; methanol) was 40600 µg/mL (≈ 118 mM), the solubility at 0.5 h ([8]; tetrahydrofuran) was 6110 µg/mL (≈ 17.9 mM) and the “Anti-proliferative activity against MIA PaCa-2 cells in combination with gemcitabine” value ([9]; in words) was “stronger anti-proliferative activity than that of RP-6306”. The IC50 [9] was 0.018 µM.

In the case of `Cc1cc2c(C(N)=O)c(N)n(-c3c(C)c(O)cc(F)c3C)c2nc1C` [Compound 3], the IC50 ([1]; Homo sapiens, MIA PaCa-2, 72 h) is reported as > 10 µM and the IC50 [9] is reported as ≥ 1.23 µM.

With `Cc1cc2c(C(N)=O)c(N)n(-c3c(C)ccc(O)c3C)c2nc1C#N` [Compound 12] the IC50 ([1]; Homo sapiens, MIA PaCa-2, 72 h) was > 10 µM.

With `Cc1cc2c(C(N)=O)c(N)n(-c3c(C)c(O)cc4c3CCC4)c2nc1C` [Compound 116] the IC50 ([1]; Homo sapiens, MIA PaCa-2, 72 h) was > 10 µM.

In the case of `Cc1cc2c(C(N)=O)c(N)n(-c3c(C)c(O)cc4c3CCCC4)c2nc1C` [Compound 127], the IC50 [10] is reported as 0.2 to 0.5 µM.
